Results: ChEMBL document CHEMBL1136936, “Discovery of N-{N-[(3-cyanophenyl)sulfonyl]-4(R)-cyclobutylamino-(L)-prolyl}-4-[(3',5'-dichloroisonicotinoyl) amino]-(L)-phenylalanine (MK-0668), an extremely potent and orally active antagonist of very late antigen-4” (J Med Chem, 2009)
Blank lines part the entries; values can stand above or below the compound they belong to.

Key:
Rattus norvegicus [1] = assay: Ex vivo receptor occupancy at VLA4 in rat at 1 mg/kg, po after 8 hrs by [125I]- -(S)-2-((2S,4R)-4-(azetidin-1-yl)-1-(3-iodophenylsulfonyl)pyrrolidine-2-carboxamido)-3-(4-(3,5-dichloroisonicotinamido)phenyl)propanoic acid competitive binding assay; assay type: functional
[2] = target: Integrin alpha-4 (Homo sapiens) (UniProt P13612); assay: Binding affinity to human VLA4 at 37 degC after 3 hrs; parameters: concentration or dose not given beside the values
Integrin alpha-4 [3] = target: T1, Integrin alpha-4 (Homo sapiens, UniProt P13612); assay: Displacement of [125I]-(S)-2-((2S,4R)-4-(azetidin-1-yl)-1-(3-iodophenylsulfonyl)pyrrolidine-2-carboxamido)-3-(4-(3,5-dichloroisonicotinamido)phenyl)propanoic acid from VLA4 in human Jurkat cells washed with Hepes buffer by competitive binding assay; assay type: cell-based
T1 sequence (P13612 whole entry): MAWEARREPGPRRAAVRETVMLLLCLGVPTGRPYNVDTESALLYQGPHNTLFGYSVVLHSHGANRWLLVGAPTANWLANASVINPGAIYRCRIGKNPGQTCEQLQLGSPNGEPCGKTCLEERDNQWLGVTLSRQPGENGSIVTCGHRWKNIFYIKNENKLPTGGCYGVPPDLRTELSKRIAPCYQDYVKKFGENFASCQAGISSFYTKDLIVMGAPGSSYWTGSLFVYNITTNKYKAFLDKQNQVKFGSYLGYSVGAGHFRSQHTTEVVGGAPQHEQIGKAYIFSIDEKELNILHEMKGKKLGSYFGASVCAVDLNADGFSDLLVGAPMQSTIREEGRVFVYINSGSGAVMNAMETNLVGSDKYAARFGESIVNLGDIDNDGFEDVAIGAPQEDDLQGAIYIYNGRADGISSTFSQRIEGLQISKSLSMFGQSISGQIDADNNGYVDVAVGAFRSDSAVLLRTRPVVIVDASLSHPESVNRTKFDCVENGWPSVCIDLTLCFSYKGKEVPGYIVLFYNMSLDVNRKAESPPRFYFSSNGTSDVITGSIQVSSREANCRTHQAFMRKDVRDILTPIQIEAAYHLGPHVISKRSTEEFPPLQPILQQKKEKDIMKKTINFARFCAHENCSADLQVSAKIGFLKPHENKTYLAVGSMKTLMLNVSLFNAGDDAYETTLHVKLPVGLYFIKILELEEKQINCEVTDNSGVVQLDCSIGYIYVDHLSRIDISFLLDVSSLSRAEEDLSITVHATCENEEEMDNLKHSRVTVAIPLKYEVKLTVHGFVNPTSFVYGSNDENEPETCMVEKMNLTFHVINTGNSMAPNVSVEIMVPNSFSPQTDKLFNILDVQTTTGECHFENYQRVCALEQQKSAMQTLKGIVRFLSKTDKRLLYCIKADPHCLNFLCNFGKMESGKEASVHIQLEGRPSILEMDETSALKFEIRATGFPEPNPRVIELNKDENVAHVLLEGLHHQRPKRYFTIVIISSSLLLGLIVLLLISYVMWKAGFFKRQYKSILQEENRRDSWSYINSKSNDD

Integrin alpha-4 [4] = target: T1, Integrin alpha-4; assay: Displacement of [125I]-(S)-2-((2S,4R)-4-(azetidin-1-yl)-1-(3-iodophenylsulfonyl)pyrrolidine-2-carboxamido)-3-(4-(3,5-dichloroisonicotinamido)phenyl)propanoic acid from VLA4 in human whole blood by competitive binding assay; assay type: tissue-based
[5] = Half life in rat at 5 mg/kg, po; assay type: ADME, organism-based; parameters: dose 5 mg/kg, route oral; conditions: in vivo
[6] = target: Integrin alpha-4 (Homo sapiens) (UniProt P13612); assay: Inhibition of human VLA4
[7] = Plasma Clearance in rat at 5 mg/kg, po; assay type: ADME, organism-based; parameters: dose 5 mg/kg, route oral
[8] = Half life in rhesus monkey at 5 mg/kg, po; assay type: ADME, organism-based, Macaca mulatta; parameters: dose 5 mg/kg, route oral; conditions: in vivo
Macaca mulatta = species on record: Macaca mulatta; assay: Inhibition of rhesus monkey VLA4
[9] = Plasma Clearance in dog at 5 mg/kg, po; assay type: ADME, organism-based, Canis lupus familiaris; parameters: dose 5 mg/kg, route oral
Canis familiaris [10] = assay: Ex vivo receptor occupancy at VLA4 in dog at 5 mg/kg, po after 12 hrs by [125I]- -(S)-2-((2S,4R)-4-(azetidin-1-yl)-1-(3-iodophenylsulfonyl)pyrrolidine-2-carboxamido)-3-(4-(3,5-dichloroisonicotinamido)phenyl)propanoic acid competitive binding assay; assay type: functional, Canis lupus familiaris
[11] = Half life in dog at 5 mg/kg, po; assay type: ADME, organism-based, Canis lupus familiaris; parameters: dose 5 mg/kg, route oral; conditions: in vivo
Rhesus monkey [12] = assay: Ex vivo receptor occupancy at VLA4 in rhesus monkey at 5 mg/kg, po after 8 hrs by [125I]- -(S)-2-((2S,4R)-4-(azetidin-1-yl)-1-(3-iodophenylsulfonyl)pyrrolidine-2-carboxamido)-3-(4-(3,5-dichloroisonicotinamido)phenyl)propanoic acid competitive binding assay; assay type: functional, Macaca mulatta
Rattus norvegicus [13] = species on record: Rattus norvegicus; assay: Inhibition of rat VLA4
Rattus norvegicus [14] = assay: Tmin in rat at 5 mg/kg, po; assay type: ADME, organism-based; parameters: dose 5 mg/kg, route oral; conditions: in vivo
Canis familiaris [15] = assay: Tmin in dog at 5 mg/kg, po; assay type: ADME, organism-based, Canis lupus familiaris; parameters: dose 5 mg/kg, route oral; conditions: in vivo
Rhesus monkey [16] = assay: Tmin in rhesus monkey at 5 mg/kg, po; assay type: ADME, organism-based, Macaca mulatta; parameters: dose 5 mg/kg, route oral; conditions: in vivo
[17] = Plasma Clearance in rhesus monkey at 5 mg/kg, po; assay type: ADME, organism-based, Macaca mulatta; parameters: dose 5 mg/kg, route oral
Liver microsomes [18] = assay: Metabolic stability in human liver microsomes after 1 hr; assay type: ADME, Microsome
Liver microsomes [19] = assay: Metabolic stability in rat liver microsomes after 1 hr; assay type: ADME, Microsome
Rattus norvegicus [20] = assay: Ex vivo receptor occupancy at VLA4 in rat at 5 mg/kg, po after 12 hrs by [125I]- -(S)-2-((2S,4R)-4-(azetidin-1-yl)-1-(3-iodophenylsulfonyl)pyrrolidine-2-carboxamido)-3-(4-(3,5-dichloroisonicotinamido)phenyl)propanoic acid competitive binding assay; assay type: functional
Canis lupus familiaris = species on record: Canis lupus familiaris; assay: Inhibition of dog VLA4
Cytochrome P450 3A4 = Cytochrome P450 3A4 (Homo sapiens, UniProt P08684); assay: Inhibition of human CYP3A4; assay type: ADME
[21] = target: Integrin alpha-4 (Homo sapiens) (UniProt P13612); assay: Binding affinity to human VLA4 at 37 degC after 1 hr
[22] = Half life in rhesus monkey at 0.75 mg/kg, iv; assay type: ADME, organism-based, Macaca mulatta; parameters: dose 0.75 mg/kg, route intravenous; conditions: in vivo
Rattus norvegicus [23] = assay: Tmin in rat at 0.5 mg/kg, iv; assay type: ADME, organism-based; parameters: dose 0.5 mg/kg, route intravenous; conditions: in vivo
[24] = Plasma Clearance in dog at 0.75 mg/kg, iv; assay type: ADME, organism-based, Canis lupus familiaris; parameters: dose 0.75 mg/kg, route intravenous
Rattus norvegicus [25] = assay: Ex vivo receptor occupancy at VLA4 in rat at 0.5 mg/kg, iv after 8 hrs by [125I]- -(S)-2-((2S,4R)-4-(azetidin-1-yl)-1-(3-iodophenylsulfonyl)pyrrolidine-2-carboxamido)-3-(4-(3,5-dichloroisonicotinamido)phenyl)propanoic acid competitive binding assay; assay type: functional
Canis familiaris [26] = assay: Tmin in dog at 0.75 mg/kg, iv; assay type: ADME, organism-based, Canis lupus familiaris; parameters: dose 0.75 mg/kg, route intravenous; conditions: in vivo
Rhesus monkey [27] = assay: Ex vivo receptor occupancy at VLA4 in rhesus monkey at 0.75 mg/kg, iv after 8 hrs by [125I]- -(S)-2-((2S,4R)-4-(azetidin-1-yl)-1-(3-iodophenylsulfonyl)pyrrolidine-2-carboxamido)-3-(4-(3,5-dichloroisonicotinamido)phenyl)propanoic acid competitive binding assay; assay type: functional, Macaca mulatta
[28] = Plasma Clearance in rhesus monkey at 0.75 mg/kg, iv; assay type: ADME, organism-based, Macaca mulatta; parameters: dose 0.75 mg/kg, route intravenous
Rhesus monkey [29] = assay: Tmin in rhesus monkey at 0.75 mg/kg, iv; assay type: ADME, organism-based, Macaca mulatta; parameters: dose 0.75 mg/kg, route intravenous; conditions: in vivo
[30] = Plasma Clearance in rat at 0.5 mg/kg, iv; assay type: ADME, organism-based; parameters: dose 0.5 mg/kg, route intravenous
Canis familiaris [31] = assay: Ex vivo receptor occupancy at VLA4 in dog at 0.75 mg/kg, iv after 8 hrs by [125I]- -(S)-2-((2S,4R)-4-(azetidin-1-yl)-1-(3-iodophenylsulfonyl)pyrrolidine-2-carboxamido)-3-(4-(3,5-dichloroisonicotinamido)phenyl)propanoic acid competitive binding assay; assay type: functional, Canis lupus familiaris
[32] = Half life in dog at 0.75 mg/kg, iv; assay type: ADME, organism-based, Canis lupus familiaris; parameters: dose 0.75 mg/kg, route intravenous; conditions: in vivo
[33] = Half life in rat at 0.5 mg/kg, iv; assay type: ADME, organism-based; parameters: dose 0.5 mg/kg, route intravenous; conditions: in vivo

Sequence of Cytochrome P450 3A4 (P08684 whole entry): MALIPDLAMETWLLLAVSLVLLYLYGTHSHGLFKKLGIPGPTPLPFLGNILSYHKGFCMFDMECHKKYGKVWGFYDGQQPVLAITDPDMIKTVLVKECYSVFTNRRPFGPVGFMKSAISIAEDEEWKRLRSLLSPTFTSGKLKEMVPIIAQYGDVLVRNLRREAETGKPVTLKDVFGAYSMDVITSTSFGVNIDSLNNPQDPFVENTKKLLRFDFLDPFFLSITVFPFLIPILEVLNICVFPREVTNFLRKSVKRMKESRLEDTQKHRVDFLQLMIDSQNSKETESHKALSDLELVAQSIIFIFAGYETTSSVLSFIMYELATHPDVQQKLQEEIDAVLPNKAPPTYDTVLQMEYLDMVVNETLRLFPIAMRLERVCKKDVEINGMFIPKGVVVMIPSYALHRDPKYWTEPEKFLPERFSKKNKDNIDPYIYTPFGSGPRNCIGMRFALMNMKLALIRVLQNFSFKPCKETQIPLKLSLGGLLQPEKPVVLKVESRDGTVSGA

Activity [2]: 89% | IC50 (Integrin alpha-4 [3]): 0.09 nM | IC50 (Integrin alpha-4 [4]): 0.3 nM
SMILES: O=C(Nc1ccc(C[C@H](NC(=O)[C@@H]2C[C@@H](N3CCCCC3)CN2S(=O)(=O)c2cc(Cl)cc(Cl)c2)C(=O)O)cc1)c1c(Cl)cncc1Cl

Activity [21]: 15% | IC50 (Integrin alpha-4 [3]): 0.2 nM
SMILES: O=C(Nc1ccc(C[C@H](NC(=O)[C@@H]2C[C@H](N3CCC3)CN2S(=O)(=O)c2cc(Cl)cc(Cl)c2)C(=O)O)cc1)c1c(Cl)cncc1Cl

half-life [22]: 1.1 h | Tmin (Rattus norvegicus [23]): 2 h | clearance [24]: 29 mL/min/kg | Tmin (Canis familiaris [26]): 1 h | Activity [2]: 77% | clearance [28]: 33 mL/min/kg | Tmin (Rhesus monkey [29]): 6 h | clearance [30]: 65 mL/min/kg | IC50 (Integrin alpha-4 [3]): 0.08 nM | IC50 (Integrin alpha-4 [4]): 0.2 nM | half-life [32]: 0.5 h | half-life [33]: 1 h
SMILES: O=C(Nc1ccc(C[C@H](NC(=O)[C@@H]2C[C@@H](N3CCC3)CN2S(=O)(=O)c2cc(Cl)cc(Cl)c2)C(=O)O)cc1)c1c(Cl)cncc1Cl
Activity (Rattus norvegicus [25]): 64% | Activity (Rhesus monkey [27]): 87% | Activity (Rattus norvegicus [1]): 46% | Activity (Canis familiaris [31]): 72%

Activity [2]: 82% | IC50 (Integrin alpha-4 [3]): 0.1 nM | IC50 (Integrin alpha-4 [4]): 0.2 nM
SMILES: O=C(Nc1ccc(C[C@H](NC(=O)[C@@H]2C[C@@H](N3CCCC3)CN2S(=O)(=O)c2cc(Cl)cc(Cl)c2)C(=O)O)cc1)c1c(Cl)cncc1Cl

More lines, now with the values behind:

SMILES: CCOC(=O)[C@H](Cc1ccc(NC(=O)c2c(Cl)cncc2Cl)cc1)NC(=O)[C@@H]1C[C@@H](N2CCC2)CN1S(=O)(=O)c1cc(Cl)cc(Cl)c1
Activity (Rattus norvegicus [1]): 62%

SMILES: O=C(Nc1ccc(C[C@H](NC(=O)[C@@H]2C[C@@H](NC3CCC3)CN2S(=O)(=O)c2cc(Cl)cc(Cl)c2)C(=O)O)cc1)c1c(Cl)cncc1Cl
Activity [2]: 82% | IC50 (Integrin alpha-4 [3]): 0.1 nM | IC50 (Integrin alpha-4 [4]): 0.1 nM

SMILES: N#Cc1cccc(S(=O)(=O)N2C[C@H](NC3CCC3)C[C@H]2C(=O)N[C@@H](Cc2ccc(NC(=O)c3c(Cl)cncc3Cl)cc2)C(=O)O)c1
half-life [5]: 1 h | IC90 [6]: 0.13 nM | CL/F [7]: 65 mL/min/kg | half-life [8]: 1.1 h | IC90 (Macaca mulatta): 0.21 nM | CL/F [9]: 29 mL/min/kg | Activity (Canis familiaris [10]): 83% | half-life [11]: 0.5 h | Activity [2]: 64% | Activity (Rhesus monkey [12]): 88% | IC90 (Rattus norvegicus [13]): 0.4 nM | Tmin (Rattus norvegicus [14]): 0 h | Tmin (Canis familiaris [15]): 6 h | Tmin (Rhesus monkey [16]): 0 h | CL/F [17]: 33 mL/min/kg | Stability (Liver microsomes [18]): 56 pmol/mg | Stability (Liver microsomes [19]): 39 pmol/mg | Activity (Rattus norvegicus [20]): 67% | IC90 (Canis lupus familiaris): 0.19 nM

SMILES: CCOC(=O)[C@H](Cc1ccc(NC(=O)c2c(Cl)cncc2Cl)cc1)NC(=O)[C@@H]1C[C@@H](NC2CCC2)CN1S(=O)(=O)c1cc(Cl)cc(Cl)c1
IC50 (Cytochrome P450 3A4): < 400 nM | Activity (Rattus norvegicus [1]): 51%

SMILES: CCOC(=O)[C@H](Cc1ccc(NC(=O)c2c(Cl)cncc2Cl)cc1)NC(=O)[C@@H]1C[C@@H](NC2CCC2)CN1S(=O)(=O)c1cccc(C#N)c1
IC50 (Cytochrome P450 3A4): 1700 nM | Activity (Canis familiaris [10]): 97% | Activity (Rhesus monkey [12]): 95% | Tmin (Rattus norvegicus [14]): 0 h | Tmin (Canis familiaris [15]): 12 h | Tmin (Rhesus monkey [16]): 0 h | Activity (Rattus norvegicus [20]): 77%

SMILES: C[C@@]1(C(=O)N[C@@H](Cc2ccc(NC(=O)c3c(Cl)cncc3Cl)cc2)C(=O)O)CCCN1S(=O)(=O)c1cc(Cl)cc(Cl)c1
IC50 (Integrin alpha-4 [3]): 0.11 nM | IC50 (Integrin alpha-4 [4]): 49 nM

SMILES: O=C(Nc1ccc(C[C@H](NC(=O)[C@@H]2CCCN2S(=O)(=O)c2cc(Cl)cc(Cl)c2)C(=O)O)cc1)c1c(Cl)cncc1Cl
Activity [21]: 62% | IC50 (Integrin alpha-4 [3]): 0.07 nM | IC50 (Integrin alpha-4 [4]): 1.5 nM

SMILES: N[C@@H]1C[C@@H](C(=O)N[C@@H](Cc2ccc(NC(=O)c3c(Cl)cncc3Cl)cc2)C(=O)O)N(S(=O)(=O)c2cc(Cl)cc(Cl)c2)C1
Activity [21]: 47% | IC50 (Integrin alpha-4 [3]): 0.09 nM | IC50 (Integrin alpha-4 [4]): 0.4 nM
